# Experimental data from ChEMBL document CHEMBL1201862, “PubChem BioAssay data set” (2004).
# The source made the active and inactive calls. For most assays here, no stated cut-off is given here; in the data, actives have a measured EC50 and inactives only a lower limit.
# Legend:
# Hexokinase-1 = molecular target: T1, Hexokinase-1 (Homo sapiens, UniProt P19367); experiment: SAR analysis of small molecule inhibitors of hexokinase domain containing I (HKDC1) in the hexokinase 1 selectivity assay. [Related pubchem assays (depositor defined):AID493160, AID493190]; format: functional
# T1 sequence (P19367 whole entry): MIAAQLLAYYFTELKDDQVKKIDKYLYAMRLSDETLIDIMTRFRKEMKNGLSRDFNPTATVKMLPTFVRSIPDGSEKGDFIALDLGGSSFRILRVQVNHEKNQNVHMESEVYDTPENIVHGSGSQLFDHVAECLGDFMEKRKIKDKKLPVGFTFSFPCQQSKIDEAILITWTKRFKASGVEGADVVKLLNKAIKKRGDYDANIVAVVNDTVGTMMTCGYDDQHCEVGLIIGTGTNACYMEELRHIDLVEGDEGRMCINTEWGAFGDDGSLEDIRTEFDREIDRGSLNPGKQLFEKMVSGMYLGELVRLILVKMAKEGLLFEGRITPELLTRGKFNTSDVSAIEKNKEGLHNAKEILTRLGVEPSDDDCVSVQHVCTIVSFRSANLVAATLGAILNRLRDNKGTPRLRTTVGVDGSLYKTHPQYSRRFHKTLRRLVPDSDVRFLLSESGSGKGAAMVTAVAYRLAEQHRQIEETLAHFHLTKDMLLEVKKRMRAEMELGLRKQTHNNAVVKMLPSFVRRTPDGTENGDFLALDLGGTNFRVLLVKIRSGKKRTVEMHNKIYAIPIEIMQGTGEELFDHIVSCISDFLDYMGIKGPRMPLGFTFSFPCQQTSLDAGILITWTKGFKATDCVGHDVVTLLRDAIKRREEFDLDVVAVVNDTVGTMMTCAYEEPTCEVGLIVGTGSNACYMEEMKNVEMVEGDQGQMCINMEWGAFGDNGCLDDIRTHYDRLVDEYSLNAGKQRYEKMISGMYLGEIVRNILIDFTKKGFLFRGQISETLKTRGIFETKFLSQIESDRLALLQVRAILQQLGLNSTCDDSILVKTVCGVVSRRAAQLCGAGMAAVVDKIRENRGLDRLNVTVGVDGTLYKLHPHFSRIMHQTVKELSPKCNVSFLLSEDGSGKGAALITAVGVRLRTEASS
# Hexokinase HKDC1 = molecular target: T2, Hexokinase HKDC1 (Homo sapiens, UniProt Q2TB90); experiment: SAR analysis of small molecule inhibitors of hexokinase domain containing I (HKDC1). [Related pubchem assays (depositor defined):AID493160, AID493190]; format: functional
# T2 sequence (Q2TB90 whole entry): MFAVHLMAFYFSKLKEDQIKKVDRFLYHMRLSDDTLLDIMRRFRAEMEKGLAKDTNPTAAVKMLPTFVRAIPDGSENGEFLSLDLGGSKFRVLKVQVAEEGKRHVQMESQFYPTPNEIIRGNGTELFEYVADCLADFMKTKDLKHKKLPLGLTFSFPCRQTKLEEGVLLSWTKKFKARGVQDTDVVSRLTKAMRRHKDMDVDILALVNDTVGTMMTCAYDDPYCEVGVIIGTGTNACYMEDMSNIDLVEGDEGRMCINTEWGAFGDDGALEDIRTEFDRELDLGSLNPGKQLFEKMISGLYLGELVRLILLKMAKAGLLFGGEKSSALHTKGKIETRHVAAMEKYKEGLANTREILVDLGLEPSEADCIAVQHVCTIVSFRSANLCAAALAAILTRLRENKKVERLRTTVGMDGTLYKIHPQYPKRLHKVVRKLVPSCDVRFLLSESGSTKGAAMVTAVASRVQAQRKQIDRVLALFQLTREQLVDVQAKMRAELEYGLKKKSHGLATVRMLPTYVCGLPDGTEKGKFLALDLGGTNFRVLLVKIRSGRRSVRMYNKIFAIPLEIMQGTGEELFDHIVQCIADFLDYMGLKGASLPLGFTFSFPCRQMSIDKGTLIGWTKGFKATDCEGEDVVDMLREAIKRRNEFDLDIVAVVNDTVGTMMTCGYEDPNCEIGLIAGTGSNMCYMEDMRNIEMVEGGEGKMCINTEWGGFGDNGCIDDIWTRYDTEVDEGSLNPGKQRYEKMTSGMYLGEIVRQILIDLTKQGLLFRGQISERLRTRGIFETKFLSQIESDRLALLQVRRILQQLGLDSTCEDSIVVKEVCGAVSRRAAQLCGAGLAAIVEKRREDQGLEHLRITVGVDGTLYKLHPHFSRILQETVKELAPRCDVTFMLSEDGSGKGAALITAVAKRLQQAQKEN
# [1] = NIH-3T3 fibroblast cytotoxicity, dose response, cytotoxicity control, cell-based, fluorescence, Alamar Blue, secondary assay (AID 2327); format: functional;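 further: NIH-3T3 mouse fibroblasts cultured with fluconazole at 8 µg/mL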
# [2] = molecular target: T3, Heat shock factor protein 1 (Mus musculus, UniProt P38532); experiment: inhibition of MG132-induced HSE-luciferase signal, confirmation, cell-based, NIH3T3, luminescence, dose retest (AID 2382); format: functional;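 further: NIH3T3 fibroblasts with HSF1-driven luciferase reporter stressed by proteasome inhibitor MG132; luminescence from HSF1-driven luciferase expression after 8 hours of MG132 stress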
# T3 sequence (P38532 whole entry): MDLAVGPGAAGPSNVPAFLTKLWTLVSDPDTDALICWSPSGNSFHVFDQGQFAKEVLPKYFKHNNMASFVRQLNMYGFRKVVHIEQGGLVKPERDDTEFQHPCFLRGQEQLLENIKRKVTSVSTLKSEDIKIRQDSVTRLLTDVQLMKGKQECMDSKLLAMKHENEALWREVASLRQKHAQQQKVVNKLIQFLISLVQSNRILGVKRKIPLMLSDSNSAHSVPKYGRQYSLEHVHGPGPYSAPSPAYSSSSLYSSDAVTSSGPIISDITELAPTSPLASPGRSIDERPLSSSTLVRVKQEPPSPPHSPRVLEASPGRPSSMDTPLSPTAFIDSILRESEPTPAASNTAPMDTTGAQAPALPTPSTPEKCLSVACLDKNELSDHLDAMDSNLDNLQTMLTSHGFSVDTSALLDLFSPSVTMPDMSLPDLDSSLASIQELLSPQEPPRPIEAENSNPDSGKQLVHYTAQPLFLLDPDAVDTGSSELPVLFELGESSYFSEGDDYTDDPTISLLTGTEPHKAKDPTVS
# [3] = C. albicans growth with fluconazole, confirmation, fluorescence, retest (AID 2467); format: functional, cell-based
# [4] = inhibitors of intracellular T. cruzi replication, confirmation, NIH3T3 host cells, beta-gal luminescence (AID 2044); format: functional, cell-based;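 further: intracellular parasites grown in NIH/3T3 mouse fibroblasts as host cells; luminescent beta-galactosidase reporter signal from transgenic T. cruzi replicating inside host cells; inhibitors lower the luminescence signal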
# [5] = growth suppression of PTEN-null colon cells, dose response, cell-based, HCT116 PTEN knockout (AID 1047); format: functional;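 further: HCT116 colon tumor cells with PTEN knocked out; cells exposed to compound for 60 hours before readout; potency for loss of cell viability measured by luminescence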
# Estrogen receptor beta = Estrogen receptor beta (Homo sapiens, UniProt Q92731); experiment: ERβ–SRC-3 coactivator interaction inhibitors, confirmation, orthogonal assay, biochemical, ELISA, streptavidin-HRP readout (AID 1060)
# [6] = molecular target: Serine/threonine-protein phosphatase (Candida dubliniensis (strain CD36 / CBS 7987 / NCPF 3949 / NRRLY-17841) (Yeast), UniProt B9W6M3); experiment: calcineurin pathway inhibitors in yeast reporter, dose response, S. cerevisiae, CDRE-lacZ, luminescence, secondary (AID 2388); format: functional, cell-based;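 further: yeast reporter cells carrying a calcineurin-responsive lacZ construct stimulated with calcium chloride; luminescent beta-galactosidase reporter signal in whole cells rather than isolated phosphatase activity; potency for inhibition where a drop in reporter signal means calcineurin blockade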
# [7] = cytotoxicity toward NIH3T3 fibroblasts, dose response, counter-screen, cell-based, ATP luminescence, mouse fibroblasts (AID 2010); format: functional;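 further: cells exposed to compound for about 90 hours before reading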
# [8] = growth suppression of beta-catenin-knockout colon cells, dose response, cell-based, HCT116, human colon tumor (AID 1045); format: functional;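 further: HCT116 colon tumor cells with beta catenin knocked out; cells exposed to compound for 60 hours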
# Nonstructural protein 1 = Nonstructural protein 1 (Influenza A virus, UniProt Q194T2); format: functional, Influenza A virus (A/California/07/2009(H1N1))
# [9] = molecular target: T4, Replicative DNA helicase DnaB (Mycobacterium tuberculosis, UniProt P9WMR3); experiment: DnaB intein splicing inhibitors, dose response, biochemical, cell-free fluorescence (AID 449749); format: functional
# T4 sequence (P9WMR3 whole entry): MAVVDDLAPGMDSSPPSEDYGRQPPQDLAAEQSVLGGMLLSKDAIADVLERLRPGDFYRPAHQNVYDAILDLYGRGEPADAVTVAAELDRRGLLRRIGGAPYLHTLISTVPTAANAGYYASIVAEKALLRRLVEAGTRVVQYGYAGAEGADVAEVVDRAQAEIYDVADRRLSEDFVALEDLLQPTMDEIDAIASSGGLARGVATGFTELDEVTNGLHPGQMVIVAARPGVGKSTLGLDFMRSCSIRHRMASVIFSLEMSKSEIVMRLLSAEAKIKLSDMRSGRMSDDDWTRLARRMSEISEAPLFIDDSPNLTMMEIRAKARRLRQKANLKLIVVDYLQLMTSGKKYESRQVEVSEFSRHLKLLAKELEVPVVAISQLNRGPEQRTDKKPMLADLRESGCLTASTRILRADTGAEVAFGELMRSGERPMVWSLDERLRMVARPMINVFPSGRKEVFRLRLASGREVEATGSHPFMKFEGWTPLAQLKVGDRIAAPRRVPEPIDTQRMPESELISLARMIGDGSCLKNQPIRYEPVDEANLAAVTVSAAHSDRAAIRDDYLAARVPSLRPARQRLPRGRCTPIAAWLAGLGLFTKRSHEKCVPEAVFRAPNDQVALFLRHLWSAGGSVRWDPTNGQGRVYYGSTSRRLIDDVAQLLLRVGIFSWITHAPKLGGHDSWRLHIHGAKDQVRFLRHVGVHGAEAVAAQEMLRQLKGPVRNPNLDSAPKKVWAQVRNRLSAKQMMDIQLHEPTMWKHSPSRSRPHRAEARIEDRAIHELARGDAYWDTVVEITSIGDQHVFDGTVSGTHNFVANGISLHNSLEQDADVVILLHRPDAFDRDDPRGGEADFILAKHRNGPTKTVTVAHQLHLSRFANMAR
# Protein RecA = molecular target: T5, Protein RecA (Mycobacterium tuberculosis, UniProt P9WHJ3); experiment: Fluorescence Cell-Free Homogeneous Dose Retest to Identify Inhibitors of RecA-Intein Splicing Activity. [Related pubchem assays (depositor defined):AID2097, AID2223, AID489010, AID492950]; format: functional
# T5 sequence (P9WHJ3 whole entry): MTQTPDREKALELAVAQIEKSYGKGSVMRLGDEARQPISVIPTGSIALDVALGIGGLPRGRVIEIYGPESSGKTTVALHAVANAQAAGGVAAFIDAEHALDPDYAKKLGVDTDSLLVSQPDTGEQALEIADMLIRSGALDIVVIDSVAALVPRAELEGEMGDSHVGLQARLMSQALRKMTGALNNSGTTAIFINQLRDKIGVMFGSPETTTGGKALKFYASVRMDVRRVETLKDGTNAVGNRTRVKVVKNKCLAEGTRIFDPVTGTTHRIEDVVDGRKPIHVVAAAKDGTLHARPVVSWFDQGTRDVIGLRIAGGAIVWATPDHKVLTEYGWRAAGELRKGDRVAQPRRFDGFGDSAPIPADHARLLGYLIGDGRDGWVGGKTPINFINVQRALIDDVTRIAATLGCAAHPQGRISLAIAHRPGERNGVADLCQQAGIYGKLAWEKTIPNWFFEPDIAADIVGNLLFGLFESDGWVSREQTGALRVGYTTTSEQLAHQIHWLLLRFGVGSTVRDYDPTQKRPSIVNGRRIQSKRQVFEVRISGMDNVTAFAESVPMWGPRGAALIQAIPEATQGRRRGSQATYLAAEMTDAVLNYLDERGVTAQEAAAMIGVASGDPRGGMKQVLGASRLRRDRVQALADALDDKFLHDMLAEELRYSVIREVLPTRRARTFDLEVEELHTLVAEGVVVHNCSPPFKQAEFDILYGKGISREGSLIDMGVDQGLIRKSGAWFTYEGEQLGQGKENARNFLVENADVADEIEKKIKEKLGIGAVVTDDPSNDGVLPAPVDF
# [10] = molecular target: ATP-dependent molecular chaperone HSP82 (Candida albicans (strain WO-1) (Yeast), UniProt C4YTQ8); experiment: loss of DOC-induced GRE-beta-galactosidase reporter signal, dose response, Hsp90 inhibitor project, S. cerevisiae, luminescence (AID 2400); format: functional, cell-based;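 further: beta-galactosidase luminescence from glucocorticoid response element reporter as proxy for Hsp90 function; inhibitor potency where signal loss means Hsp90 inhibition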
# Chain of ATP-dependent molecular chaperone HSP82 (C4YTQ8 whole entry): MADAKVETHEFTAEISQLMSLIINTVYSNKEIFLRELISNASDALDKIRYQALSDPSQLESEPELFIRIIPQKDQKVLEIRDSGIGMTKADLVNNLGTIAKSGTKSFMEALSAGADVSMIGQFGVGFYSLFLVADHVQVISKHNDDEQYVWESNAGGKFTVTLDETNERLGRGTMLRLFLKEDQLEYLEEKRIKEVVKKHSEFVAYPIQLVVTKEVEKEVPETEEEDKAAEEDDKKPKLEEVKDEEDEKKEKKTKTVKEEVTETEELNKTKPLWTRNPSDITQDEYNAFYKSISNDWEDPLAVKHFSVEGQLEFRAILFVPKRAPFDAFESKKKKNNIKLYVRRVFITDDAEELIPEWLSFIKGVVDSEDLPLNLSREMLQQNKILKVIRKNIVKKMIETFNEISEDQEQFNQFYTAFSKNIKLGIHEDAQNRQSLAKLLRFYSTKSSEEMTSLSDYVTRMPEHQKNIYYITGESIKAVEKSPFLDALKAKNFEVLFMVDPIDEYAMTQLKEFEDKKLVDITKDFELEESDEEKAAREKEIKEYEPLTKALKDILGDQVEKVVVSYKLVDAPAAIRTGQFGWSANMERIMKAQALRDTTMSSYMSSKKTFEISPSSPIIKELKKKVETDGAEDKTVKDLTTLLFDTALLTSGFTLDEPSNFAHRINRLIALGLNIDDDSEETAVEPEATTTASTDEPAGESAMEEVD
# Chain of Serine/threonine-protein phosphatase (B9W6M3 whole entry): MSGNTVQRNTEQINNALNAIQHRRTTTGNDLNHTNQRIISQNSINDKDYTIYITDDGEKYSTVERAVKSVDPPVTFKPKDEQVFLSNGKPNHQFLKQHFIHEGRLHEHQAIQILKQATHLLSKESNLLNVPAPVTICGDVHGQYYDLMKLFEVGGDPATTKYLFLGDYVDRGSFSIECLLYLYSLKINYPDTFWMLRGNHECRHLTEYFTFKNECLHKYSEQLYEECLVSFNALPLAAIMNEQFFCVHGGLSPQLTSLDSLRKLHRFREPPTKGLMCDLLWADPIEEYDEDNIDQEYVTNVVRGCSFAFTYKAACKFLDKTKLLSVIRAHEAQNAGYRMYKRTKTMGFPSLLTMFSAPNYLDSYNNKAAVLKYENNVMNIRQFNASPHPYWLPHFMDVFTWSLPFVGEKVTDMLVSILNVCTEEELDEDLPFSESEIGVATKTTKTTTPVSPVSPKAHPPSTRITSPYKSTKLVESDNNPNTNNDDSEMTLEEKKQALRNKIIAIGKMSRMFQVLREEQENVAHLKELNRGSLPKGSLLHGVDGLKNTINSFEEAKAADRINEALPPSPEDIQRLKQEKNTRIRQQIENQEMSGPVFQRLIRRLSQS
# Chain of Nonstructural protein 1 (Q194T2 whole entry): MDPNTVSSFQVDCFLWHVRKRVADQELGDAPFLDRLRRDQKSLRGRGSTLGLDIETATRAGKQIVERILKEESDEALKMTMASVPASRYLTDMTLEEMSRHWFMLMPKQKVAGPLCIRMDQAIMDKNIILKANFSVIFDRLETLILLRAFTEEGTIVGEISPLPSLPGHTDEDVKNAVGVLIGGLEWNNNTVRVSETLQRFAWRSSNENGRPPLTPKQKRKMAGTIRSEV
# Chain of Estrogen receptor beta (Q92731 whole entry): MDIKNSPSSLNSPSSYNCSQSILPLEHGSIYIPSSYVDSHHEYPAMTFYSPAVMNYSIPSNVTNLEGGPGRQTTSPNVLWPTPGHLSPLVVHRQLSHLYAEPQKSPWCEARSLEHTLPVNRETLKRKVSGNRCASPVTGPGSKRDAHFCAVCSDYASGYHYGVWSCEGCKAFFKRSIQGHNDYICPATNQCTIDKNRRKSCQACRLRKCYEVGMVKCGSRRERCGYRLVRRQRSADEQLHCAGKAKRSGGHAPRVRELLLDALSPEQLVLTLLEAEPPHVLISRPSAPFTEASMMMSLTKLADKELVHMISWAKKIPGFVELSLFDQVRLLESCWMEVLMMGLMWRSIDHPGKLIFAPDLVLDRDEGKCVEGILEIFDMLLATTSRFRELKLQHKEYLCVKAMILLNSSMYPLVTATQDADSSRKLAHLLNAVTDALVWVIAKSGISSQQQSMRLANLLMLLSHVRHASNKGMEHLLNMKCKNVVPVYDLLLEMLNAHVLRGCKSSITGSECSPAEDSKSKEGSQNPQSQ
structure (smiles),measurement,setting,value
COc1cccc(/C=C/c2nc3ccccc3c(=O)n2Cc2ccccc2)c1,IC50,Hexokinase-1,> 80 µM (inactive)
same,IC50,Hexokinase HKDC1,> 80 µM (inactive)
CCN1CCN(C(c2cccnc2)c2cc(Cl)c3cccnc3c2O)CC1 (centres undefined),EC50,[1],> 150 µM (inactive)
same,EC50,[2],> 195 µM (not active)
same,EC50,[3],0.916 µM (active)
same,EC50,[4],2.13 µM (active)
same,EC50,[5],12.7 µM (active)
same,IC50,Estrogen receptor beta,2.39 µM (not active)
same,EC50,[6],> 180 µM (inactive)
same,EC50,[7],> 60 µM (not active)
same,EC50,[8],15.1 µM (active)
same,IC50,Nonstructural protein 1,17.8 µM (active)
same,AC50,[9],> 380 µM (inactive)
same,EC50,Protein RecA,1.8 µM (active)
same,EC50,[10],> 150 µM (inactive)
COc1cc2c(cc1OC)-c1cc(N3CCc4ccccc4C3)nc(=O)n1CC2,IC50,Hexokinase-1,69 µM (inactive)
same,IC50,Hexokinase HKDC1,65.7 µM (inactive)
CCn1c(Sc2nc(C)nc3scc(-c4cccs4)c23)n[nH]c1=O,EC50,[6],> 180 µM (inactive)
same,EC50,[10],30.7 µM (active)
